Assay results reported in ChEMBL document CHEMBL1201862, “PubChem BioAssay data set” (2004).
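Briefly, cells in 96-well plates were exposed to five compound concentrations for 48 h, and endpoints were estimated by linear interpolation. GI50 marks 50% less growth.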 Active and inactive are the calls of the source. Cut-off read from the data, not from the text of the source: active = GI50 up to about 1.1 µM and inactive = higher.

Tests used:
Experiment in all cases: inhibition of tumour cell growth, NCI panel, 48 h
DMS-114 = tested on: DMS-114
786-0 = tested on: 786-0
LXFL 529 = tested on: LXFL 529
Hs-578T = tested on: Hs-578T
T47D = tested on: T47D
DU-145 = tested on: DU-145
MDA-MB-231 = tested on: MDA-MB-231
MDA-N = tested on: MDA-N
RXF 631 = tested on: RXF 631

SMILES | GI50 (DMS-114) | GI50 (LXFL 529) | GI50 (Hs-578T) | GI50 (T47D) | GI50 (DU-145) | GI50 (MDA-MB-231) | GI50 (MDA-N) | other results
COc1ccc(-c2nc3ccc([N+](=O)[O-])cc3c(=O)[nH]2)cc1 | 33 µM (inactive) |  |  |  |  |  |  | 
CCOC(=O)N1C=NC23C(c4ccccc4)C(c4ccccc4)C12C(=O)N(C)C(=O)N3C (stereo not drawn) |  | > 100 µM (inactive) |  |  |  |  |  | GI50 (786-0): > 100 µM (inactive)
O=C1CCC23CC(C=CC=C12)n1c(=O)n(-c2ccccc2)c(=O)n13 (stereo not drawn) | 37.3 µM (inactive) |  |  |  |  |  |  | 
CCCCNC(=O)N/C=C1\C(=O)Oc2ccccc2C1=O | 28.3 µM (inactive) | 47.8 µM (inactive) |  |  |  |  |  | 
C[C@@H]1CC[C@H]2[C@H]1[C@H]1[C@@H](CC[C@]2(C)N=C=S)C1(C)C |  |  | 48.1 µM (inactive) | 45.5 µM (inactive) | 23.4 µM (inactive) | 30.1 µM (inactive) | 1.96 µM (inactive) | 
SC1=Nc2ccccc2-c2nc(-c3ccccc3)cc(-c3ccc(Br)cc3)c2C1 |  |  | 0.891 µM (active) | 1.48 µM (inactive) | 3.48 µM (inactive) | 1.44 µM (inactive) | 2.51 µM (inactive) | 
Cn1c(=O)c(-c2ccccc2)c(N=[N+]=[N-])c2ccccc21 |  |  | 37.7 µM (inactive) | 19.8 µM (inactive) | > 100 µM (inactive) | 49.5 µM (inactive) | 72.8 µM (inactive) | 
Cc1cc2c(cc1C)[n+]([O-])c(C#N)c(Cl)[n+]2[O-] |  |  | 15.9 µM (inactive) |  | 14.9 µM (inactive) | 19.1 µM (inactive) | 17.5 µM (inactive) | 
CC1CC[P+](c2ccccc2)(c2ccccc2)c2c1ccc1ccccc21 (stereo not drawn) |  | 0.83 µM (active) | 1.46 µM (inactive) | 0.883 µM (active) |  |  |  | 
N#C[C@H](OC1OC(COC2OC(CO)C(O)C(O)C2O)C(O)C(O)C1O)c1ccccc1 (stereo partly drawn) | > 250 µM (inactive) |  |  |  |  |  |  | 
N#Cc1ccc(C2Oc3ccc(Cl)cc3C=C2[N+](=O)[O-])cc1 (stereo not drawn) |  |  | 6.32 µM (inactive) | 0.34 µM (active) | 2.34 µM (inactive) | 1.8 µM (inactive) | 1.53 µM (inactive) | 
CCCCCCCCCCCCCC(=O)OC1C(O)C(CO)OC(OC)C1NC(=O)N(CCCl)N=O (stereo not drawn) |  | > 100 µM (inactive) |  |  |  |  |  | 
Cc1ccc(NC(=O)OCC(COc2ccc(Cl)cc2)OC(=O)Nc2ccc(C)cc2)cc1 (stereo not drawn) | 17.3 µM (inactive) | 23.4 µM (inactive) |  |  |  |  |  | GI50 (RXF 631): 11.5 µM (inactive)
